In paper PMC4072787 (PLoS Pathogens, 2014):
“Also recorded” adds a separate entry of the source. Read-outs that look alike come from different tables or passages of the source.

Assays:
VEEV TC-83 [1] = assay: microbe, parasite or virus in culture; format: cell-based; conditions: Venezuelan equine encephalitis virus, Vero 76, read-out: IC50 against TC-83 1º
in vivo = conditions: mouse, ip
in vitro [2] = conditions: PAMPA
in vitro [3] = conditions: dog, MDCK-MDR1
MDR1 = assay: in vitro; conditions: dog, MDCK-MDR1
VEEV TrD [4] = assay: microbe, parasite or virus in culture; format: cell-based; conditions: Venezuelan equine encephalitis virus
VEEV V3526 = assay: microbe, parasite or virus in culture; format: cell-based; conditions: Venezuelan equine encephalitis virus
[5] = microsomes
in vitro [6] = conditions: African green monkey
VACV-LREV = assay: microbe, parasite or virus in culture; format: cell-based, vaccinia virus (western reserve)
VEEV TC-83 [7] = format: cell-based, Venezuelan equine encephalitis virus
VEEV TC-83 proteins = format: cell-based, Venezuelan equine encephalitis virus
VEEV TC-83 [8] = format: cell-based, Venezuelan equine encephalitis virus; remark: listed apart in the source
VEEV TC-83 RNA = format: cell-based, Venezuelan equine encephalitis virus
EEEV strain FL91 = assay: microbe, parasite or virus in culture; format: cell-based, Eastern equine encephalitis virus
VEEV TC-83 [9] = format: cell-based, Venezuelan equine encephalitis virus; remark: listed apart in the source
VEEV TrD [10] = format: cell-based, Venezuelan equine encephalitis virus
in vitro [11] = conditions: mouse, plasma
RSV (strain Long) = assay: microbe, parasite or virus in culture; format: cell-based, human respiratory syncytial virus
in vitro [12] = conditions: mouse; for fraction unbound: plasma
VEEV TC-83 [13] = assay: microbe, parasite or virus in culture; format: cell-based; conditions: Venezuelan equine encephalitis virus
in vitro [14] = conditions: microsomes
CHIKV = assay: microbe, parasite or virus in culture; format: cell-based, Chikungunya virus
Ebola virus (Zaire)-GFP = assay: microbe, parasite or virus in culture; format: cell-based
[15] = 16 hr.
WEEV (VR-70) = assay: microbe, parasite or virus in culture; format: cell-based; conditions: Western equine encephalitis virus, Vero, 72 h, read-out: Antiviral Activity (IC50), WEEV
VSV-EGFP = assay: microbe, parasite or virus in culture; format: cell-based, vesicular stomatitis virus
VEEV TC-83 [16] = assay: microbe, parasite or virus in culture; format: cell-based; conditions: Venezuelan equine encephalitis virus, Vero 76
[17] = mouse, in vivo
VEEV TC-83 [18] = conditions: mouse, in vivo; cited from earlier work
[19] = Vero 76, read-out: IC50 against TC-83 2º

## CCN1CCN(Cc2nc3ccc([N+](=O)[O-])cc3c(=O)n2-c2ccccc2F)CC1 [CID15997213]
VEEV TC-83 [1]
  IC50: 1.91 µM
In vivo
  MTD: ≥ 800 mg/kg
In vitro [2]
  Papp: 42 ×10⁻⁶ cm/s
In vitro [3]
  Papp A→B: 7.2 ×10⁻⁶ cm/s
  Papp B→A: 38.5 ×10⁻⁶ cm/s
MDR1
  efflux ratio: 5.3
VEEV TrD [4]; N2a, read-out: Antiviral Activity (IC50), VEEV TrD
  IC50: 0.48 µM
VEEV TrD [4]; Vero 76, read-out: Antiviral Activity (IC50), VEEV TrD
  IC50: 0.38 µM
VEEV TrD [4]; read-out: IC50, VEEV TrD
  IC50: 0.36 to 0.48 µM
VEEV V3526; read-out: Antiviral Activity (IC50), VEEV V3526
  IC50: 0.67 µM
VEEV V3526; read-out: IC50, V3526
  IC50: 0.32 µM
VEEV V3526; read-out: IC50 against V3526
  IC50: 1.01 µM
[5]
  microsomal stability: good
In vitro [6]
  CC50: > 25 µM
physchem
  solubility: > 100 µM
VACV-LREV
  Antiviral Activity (IC50), VACV-LREV: No antiviral activity
VACV-LREV; Vaccinia virus Western Reserve, A549, 18 h, read-out: Antiviral Activity (IC50), VACV-LREV
  IC50: > 20 µM
VEEV TC-83 [7]
  Progeny virus in titer reduction assay: No progeny virus was detected
VEEV TC-83 proteins
  Viral protein level (western blot): dramatic decrease in viral protein level; also recorded: not able to detect viral proteins
VEEV TC-83 [8]
  Virus production still occurring, of the maximum: 90%
VEEV TC-83 RNA
  Reduction in viral RNA levels as compared to the control: > 8,000 fold
EEEV strain FL91
  Antiviral Activity (IC50), EEEV: no activity
EEEV strain FL91; Eastern equine encephalitis virus, Vero, 40 h, read-out: Antiviral Activity (IC50), EEEV
  IC50: > 20 µM
VEEV TC-83 [9]
  Plaque formation: no visible plaques
VEEV TrD [10]
  Progeny virus in titer reduction assay: No progeny virus was detected
In vitro [11]
  half-life: > 4 h
RSV (strain Long)
  Antiviral Activity (IC50), RSV: No antiviral activity
RSV (strain Long); human respiratory syncytial virus, HEp-2, 120 h, read-out: Antiviral Activity (IC50), RSV
  IC50: > 50 µM
In vitro [12]
  recovery: 89%
In vitro [12]; Mean plasma fraction bound
  fraction unbound: 0.324
In vitro [12]; Mean plasma fraction unbound
  fraction unbound: 0.324
In vitro [12]; protein binding
  fraction unbound: 0.68
VEEV TC-83 [13]; [19]
  IC50: 1.3 µM
VEEV TC-83 [13]; read-out: IC50, VEEV TC-83
  IC50: 0.84 µM
In vitro [14]
  microsomal CLint: 31.4 µL/min/mg
CHIKV
  Antiviral Activity (IC50), CHIKV: not inhibited
CHIKV; Chikungunya virus, 72 h, read-out: Antiviral Activity (IC50), CHIKV
  IC50: > 50 µM
Ebola virus (Zaire)-GFP
  Antiviral Activity (IC50), Ebola virus (Zaire)-GFP: No antiviral activity
Ebola virus (Zaire)-GFP; Zaire ebolavirus, HeLa, 24 h, read-out: Antiviral Activity (IC50), Ebola virus (Zaire)-GFP
  IC50: > 10 µM
[15]
  Aqueous solubility: >100 µM
WEEV (VR-70)
  IC50: 10 µM
VSV-EGFP
  Antiviral Activity (IC50), VSV-EGFP: No antiviral activity
VSV-EGFP; Vesicular stomatitis virus, A549, 18 h, read-out: Antiviral Activity (IC50), VSV-EGFP
  IC50: > 20 µM
VEEV TC-83 [16]
  inhibition at 20 µM: 73%
[17]
  Acute toxicity, clinical signs: no acute toxicity
  Toxicity (body weight loss, adverse effects): No apparent toxicity

## O=C(Cc1cccs1)Nc1nc2c(s1)CCCC2 [compound 847035]
VEEV TC-83 [1]
  IC50: 6.38 µM
VEEV V3526; read-out: IC50 against V3526
  IC50: 7.09 µM
In vitro [6]
  CC50: > 25 µM
VEEV TC-83 [13]; [19]
  IC50: 4.71 µM
VEEV TC-83 [16]
  inhibition at 20 µM: 27.8%

## Clc1ccc2nnnc(-c3ccccc3)c2c1 [compound 902491]
VEEV TC-83 [1]
  IC50: 9.71 µM
VEEV V3526; read-out: IC50 against V3526
  IC50: 6.12 µM
In vitro [6]
  CC50: > 25 µM
VEEV TC-83 [13]; [19]
  IC50: 3.45 µM
VEEV TC-83 [16]
  inhibition at 20 µM: 42.1%

## O=c1nc(Nc2ccc(OCc3ccccc3)cc2)sc2ncccc12 [compound 1258664]
VEEV TC-83 [1]
  IC50: 2.86 µM
VEEV V3526; read-out: IC50 against V3526
  IC50: 3.67 µM
In vitro [6]
  CC50: > 25 µM
VEEV TC-83 [13]; [19]
  IC50: 2.38 µM
VEEV TC-83 [16]
  inhibition at 20 µM: 63.2%

## CCOC(=O)c1ccc(Nc2nc(=O)c3cccnc3s2)cc1 [compound 1259240]
VEEV TC-83 [1]
  IC50: 6.32 µM
VEEV V3526; read-out: IC50 against V3526
  IC50: 10.8 µM
In vitro [6]
  CC50: > 25 µM
VEEV TC-83 [13]; [19]
  IC50: 7.07 µM
VEEV TC-83 [16]
  inhibition at 20 µM: 49%

## O=C(Oc1ccc2ccccc2c1Br)N1CCCCCC1 [compound 2928803]
VEEV TC-83 [1]
  IC50: 4.26 µM
VEEV V3526; read-out: IC50 against V3526
  IC50: > 50 µM
In vitro [6]
  CC50: > 25 µM
VEEV TC-83 [13]; [19]
  IC50: > 50 µM
VEEV TC-83 [16]
  inhibition at 20 µM: 42.8%

## (−)-carbodine
VEEV TC-83 [18]
  Survival: 50%
